Source: patent publication US20160303251A1, “CONJUGATES OF GARFTASE INHIBITORS” (ENDOCYTE, INC., priority 2015, published 2016)

Experiments:
KB cells = assay: In vitro activity in KB cells (3H-thymidine incorporation); format: cell-based, human; conditions: 2 hr pulse at 37° C., chase up to 70 hr
Description: Cells were seeded in 24-well Falcon plates and allowed to form nearly confluent monolayers overnight. After one rinse with 1 mL of fresh FFRPMI/HIFCS, each well received 1 mL of medium containing increasing concentrations of test agent (3 wells per sample). Cells were pulsed with targeted agents for 2 hr at 37° C., rinsed 4 times with 0.5 mL of medium, and then chased in 1 mL of fresh medium up to 70 hr. Cells were treated with non-targeted agent ECO347 for a continuous 72 h. Spent medium was aspirated from all wells and replaced with fresh medium containing 5 μCi/mL ^3H-thymidine. After a further 2 hr 37° C. incubation, cells were washed 3 times with 0.5 mL of PBS and then treated with 0.5 mL of ice-cold 5% trichloroacetic acid per well. After 15 min, the trichloroacetic acid. was aspirated and the cell material solubilized by the addition of 0.5 mL of 0.25 N sodium hydroxide for 15 min. Four hundred and fifty microliters of each solubilized sample were transferred to scintillation vials containing 3 mL of Ecolume scintillation cocktail and then counted in a liquid scintillation counter. Final tabulated results were expressed as the percentage of ^3H-thymidine incorporation relative to untreated controls and IC50 values calculated using Graphpad Prism software.

subcutaneous KB tumors = assay: Antitumor activity in KB tumor model; format: in vivo, mice; conditions: for PR, complete responses or cure: 1 μmol/kg
Description: METHOD. Inhibition of Tumor Growth in Mice. Four to seven week-old mice (Balb/c or nu/nu strains) are purchased from Harlan Sprague Dawley, Inc. (Indianapolis, Ind.). […] For tumor cell inoculation, 1×10^6 M109 cells (a syngeneic lung carcinoma) in Balb/c strain, or 1×10^6 KB cells in nu/nu strain, in 100 μL are injected in the subcutis of the dorsal medial area (right axilla). Tumors are measured in two perpendicular directions every 2-3 days using a caliper, and their volumes are calculated as 0.5×L×W^2, where L=measurement of longest axis in mm and W=measurement of axis perpendicular to L in mm.
Dosing is initiated when the s.c. tumors have an average volume between 50-100 […] (t0), typically 8 days post tumor inoculation (PTI) for KB tumors, and 11 days PTI for M109 tumors. Test animals (5/group) are injected i.v., generally three times a week (TIW), for 3 weeks with varying doses, such as with 1 μmol/kg to 5 μmol/kg, of the conjugate or with an equivalent dose volume of PBS (control), unless otherwise indicated. Dosing solutions are prepared fresh each day in PBS and administered through the lateral tail vein of the mice.
Female Balb/c nu/nu mice were fed ad libitum with folate-deficient chow (Harlan diet #TD01013) for the duration of the experiment. KB tumor cells were inoculated subcutaneously at the right flank of each mouse. Mice were dosed after the tumors have reached a range of 107-152 mm^3 through the lateral tail vein under sterile conditions in a volume of 200 μL of phosphate-buffered saline (PBS).
Growth of each s.c. tumor was followed by measuring the tumor two times per week. Tumors were measured in two perpendicular directions using Vernier calipers, and their volumes were calculated as 0.5×L×W^2, where L=measurement of longest axis in mm and W=measurement of axis perpendicular to L in mm.

[1] = 0.5 μmol/kg (EC1953 printed 0.5 mol/kg), TIW×2 wk, n=5
[2] = 1 μmol/kg (EC1953, EC 2014 printed 1 mol/kg), TIW×2 wk, n=5
[3] = mice having subcutaneous KB tumors

How did the IC50 (KB cells; Homo sapiens) turn out when `Nc1nc2[nH]c(CCCc3ccc(C(=O)N[C@@H](CCC(=O)O)C(=O)O)s3)cc2c(=O)[nH]1` [AG94, reference compound] was run?
Its IC50 is 2.5 nM.

And the “PR, complete responses or cure” value (subcutaneous KB tumors; TIW×2 wk, n=5)?
Its value is “none of the treatment groups showed a PR, complete responses, or cure”.

How did the IC50 (KB cells; Homo sapiens) turn out when `Nc1nc2[nH]c(CCCCCCCC(=O)N[C@@H](CCC(=O)O)C(=O)O)cc2c(=O)[nH]1` [AG147, reference compound] was run?
Its IC50 is 1.2 nM.

Which IC50 (KB cells) does the source give for `CCCC(=O)OCN(C(=O)[C@@H](NC(=O)[C@H]1CCCCN1C)C(C)CC)[C@H](C[C@@H](OC(C)=O)c1nc(C(=O)N[C@@H](Cc2ccc(O)cc2)C[C@H](C)C(=O)NNC(=O)OCCSSCCC(=O)N[C@@H](CCC(=O)NC[C@H](O)[C@@H](O)[C@H](O)[C@H](O)CO)C(=O)N[C@@H](CCC(=O)O)C(=O)N[C@@H](CCC(=O)NC[C@H](O)[C@@H](O)[C@H](O)[C@H](O)CO)C(=O)N[C@@H](CCC(=O)O)C(=O)N[C@@H](CCC(=O)NC[C@H](O)[C@@H](O)[C@H](O)[C@H](O)CO)C(=O)N[C@@H](CSSCCOC(=O)CC[C@H](NC(=O)c2ccc(CCCc3cc4c(=O)[nH]c(N)nc4[nH]3)s2)C(=O)O)C(=O)O)cs1)C(C)C` (some centres unmarked) [EC1953] here?
The IC50 was 0.4 nM.

What about the “CR (complete responses) of {PR, CR, cure}” value (subcutaneous KB tumors; [1]) of the same compound?
Its value is 1.

And the “PR (partial responses) of {PR, CR, cure}” value (subcutaneous KB tumors; [1])?
The value was 3.

And the “cure of {PR, CR, cure}” value (subcutaneous KB tumors; [2])?
Its value is 5.

And the “cure of {PR, CR, cure}” value (subcutaneous KB tumors; 2 umol/kg, q5d×2 wk (independent dosing protocol))?
The value was 5.

What about the “cure of {PR, CR, cure}” value (subcutaneous KB tumors; 2 μmol/kg, single dose, n=5) of the same compound?
The value was 2.

And the “cures, observation period extended for 90 days” value (subcutaneous KB tumors; 1 mol/kg (so in the source), TIW×2 wk)?
The value was 5/5.

And the “cures, observation period extended for 90 days” value (subcutaneous KB tumors; 2 mol/kg (so in the source), TIW×2 wk)?
Its value is 5/5.

What about the “cure of {PR, CR, cure}” value (subcutaneous KB tumors; 2 mol/kg (so in the source), TIW×2 wk, n=5) of the same compound?
The value was 5.

And the “dose response” value (subcutaneous KB tumors; [3])?
Its value is “shows a dose response”.

And the “efficacy compared to comparator” value (subcutaneous KB tumors; [3])?
Its value is “more efficacious than the comparator folate-tubulysin conjugate”.

Which IC50 (KB cells) does the source give for `CCCC(=O)OCN(C(=O)[C@@H](NC(=O)[C@H]1CCCCN1C)C(C)CC)[C@H](C[C@@H](OC(C)=O)c1nc(C(=O)N[C@@H](Cc2ccc(O)cc2)C[C@H](C)C(=O)NNC(=O)OCCSSCCC(=O)N[C@@H](CCC(=O)NC[C@H](O)[C@@H](O)[C@H](O)[C@H](O)CO)C(=O)N[C@@H](CCC(=O)O)C(=O)N[C@@H](CCC(=O)NC[C@H](O)[C@@H](O)[C@H](O)[C@H](O)CO)C(=O)N[C@@H](CCC(=O)O)C(=O)N[C@@H](CCC(=O)NC[C@H](O)[C@@H](O)[C@H](O)[C@H](O)CO)C(=O)N[C@@H](CSSCCOC(=O)CC[C@H](NC(=O)CCCCCCCc2cc3c(=O)[nH]c(N)nc3[nH]2)C(=O)O)C(=O)O)cs1)C(C)C` (some centres unmarked) [EC2014] here?
Its IC50 is 0.34 nM.

And the “cure of {PR, CR, cure}” value (subcutaneous KB tumors; [2])?
Its value is 5.

“tubulysin B-monohydrazide [reference compound]” was tested. Which “PR, complete responses or cure” value (subcutaneous KB tumors; TIW×2 wk, n=5) did it give?
The value was “none of the treatment groups showed a PR, complete responses, or cure”.
